Where a SMILES comes first, the peptide text is derived from it. Bridges are numbered along the chain shown (N, C = ends). Where no end group is shown, it is not given here. [ ]: non-standard residue; d: D form. Trp(5-OH) = N[C@@H](Cc1c[nH]c2ccc(O)cc12)C(=O)O; Tic = O=C(O)[C@@H]1Cc2ccccc2CN1
Experiments:
mice [1] = assay: 55° C. warm water tail-withdrawal test; assay type: in vivo, mouse; details: i.n. administration
δ opioid receptor (DOR) = molecular target: T1, δ opioid receptor (DOR) (Homo sapiens, UniProt P41143); assay: opioid receptor protein binding radioassay, DOR
T1 construct: expressed in transfected cells; host or cells: CHO cells
T1 sequence (P41143 whole entry): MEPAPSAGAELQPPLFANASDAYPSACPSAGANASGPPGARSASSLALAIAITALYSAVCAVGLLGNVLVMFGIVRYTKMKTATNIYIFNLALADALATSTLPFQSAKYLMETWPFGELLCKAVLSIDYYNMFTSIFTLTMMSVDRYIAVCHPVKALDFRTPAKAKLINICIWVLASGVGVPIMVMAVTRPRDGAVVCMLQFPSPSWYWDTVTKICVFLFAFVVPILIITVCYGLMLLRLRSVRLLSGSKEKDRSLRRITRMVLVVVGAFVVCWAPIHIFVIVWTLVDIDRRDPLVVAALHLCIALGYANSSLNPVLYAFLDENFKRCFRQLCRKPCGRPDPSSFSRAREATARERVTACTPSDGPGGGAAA

μ opioid receptor (MOR) = molecular target: T2, μ opioid receptor (MOR) (Homo sapiens, UniProt P35372); assay: opioid receptor protein binding radioassay, MOR
T2 construct: expressed in transfected cells; host or cells: CHO cells
T2 sequence (P35372 whole entry): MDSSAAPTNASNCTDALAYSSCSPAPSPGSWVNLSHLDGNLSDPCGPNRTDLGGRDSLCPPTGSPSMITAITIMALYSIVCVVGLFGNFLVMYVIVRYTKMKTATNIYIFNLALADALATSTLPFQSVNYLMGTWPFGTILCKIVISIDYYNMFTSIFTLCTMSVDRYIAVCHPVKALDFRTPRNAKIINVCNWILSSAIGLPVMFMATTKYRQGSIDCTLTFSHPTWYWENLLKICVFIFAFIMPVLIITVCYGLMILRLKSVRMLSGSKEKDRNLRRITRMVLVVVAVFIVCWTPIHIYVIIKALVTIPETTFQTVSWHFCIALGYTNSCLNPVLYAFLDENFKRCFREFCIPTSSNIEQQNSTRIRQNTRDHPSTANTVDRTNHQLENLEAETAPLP

κ opioid receptor (KOR) = molecular target: T3, κ opioid receptor (KOR) (Homo sapiens, UniProt P41145); assay: opioid receptor protein binding radioassay, KOR
T3 construct: expressed in transfected cells; host or cells: CHO cells
T3 sequence (P41145 whole entry): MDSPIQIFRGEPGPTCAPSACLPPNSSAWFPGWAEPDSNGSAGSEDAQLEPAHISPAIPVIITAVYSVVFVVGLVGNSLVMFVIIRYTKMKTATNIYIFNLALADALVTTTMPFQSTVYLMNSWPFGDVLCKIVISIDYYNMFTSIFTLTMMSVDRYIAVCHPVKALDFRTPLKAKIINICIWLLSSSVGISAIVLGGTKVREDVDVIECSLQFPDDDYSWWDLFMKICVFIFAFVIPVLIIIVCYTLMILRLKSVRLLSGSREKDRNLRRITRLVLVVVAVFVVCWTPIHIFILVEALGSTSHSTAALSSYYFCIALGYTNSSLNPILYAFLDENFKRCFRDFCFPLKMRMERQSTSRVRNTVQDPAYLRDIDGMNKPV

[2] = stability in 100% mouse brain homogenate; assay type: in vitro ADME; details: 37° C., RP-HPLC and MALDI TOF MS
Procedure: Peptides Stability Under Physiologically Relevant Conditions and Mode of Action Stability of DADLE-OL in 100% human cerebrospinal fluid and 100% mouse brain homogenate at 37° C. was determined. The disappearance of the intact peptides and formation of proteolytic products was monitored by RP-HPLC and MALDI TOF mass spectrometry. […] Once diffused into the brain, DOR active sequence is released due to proteolytic hydrolysis of DADLE-OL. Fragment 1 was synthesized, and activities of the parent DADLE-OL and fragment 1 were tested in the cAMP inhibition assay (cAMP AlphaScreen™ Assay, Perkin Elmer).

mice [3] = assay: observation of adverse effects after i.n. administration
[4] = peptide level in mouse brain after i.n. or i.p. administration (LC-MS/MS)
mice [5] = assay: rotarod test of motor coordination; details: peptides i.n.; U50,488 i.p.
[6] = 30 min after intranasal delivery
Excerpt: Anatomical and physiological studies identified the midbrain periaqueductal gray (PAG) and its descending projections to the rostral ventromedial medulla (RVM) and spinal cord dorsal horn, as a primary anatomical pathway mediating opioid-based analgesia.

mice [7] = assay: conditioned place preference / aversion; details: mouse, in vivo
DOR = molecular target: T4, DOR (Mus musculus, UniProt P32300); assay: antagonism of i.c.v. SNC-80 after i.n. pretreatment; assay type: in vivo; details: SNC-80 i.c.v.
T4 construct: from tissue; host or cells: living mouse (CNS); SNC-80 i.c.v. after i.n. TIPP-OL
T4 sequence (P32300 whole entry): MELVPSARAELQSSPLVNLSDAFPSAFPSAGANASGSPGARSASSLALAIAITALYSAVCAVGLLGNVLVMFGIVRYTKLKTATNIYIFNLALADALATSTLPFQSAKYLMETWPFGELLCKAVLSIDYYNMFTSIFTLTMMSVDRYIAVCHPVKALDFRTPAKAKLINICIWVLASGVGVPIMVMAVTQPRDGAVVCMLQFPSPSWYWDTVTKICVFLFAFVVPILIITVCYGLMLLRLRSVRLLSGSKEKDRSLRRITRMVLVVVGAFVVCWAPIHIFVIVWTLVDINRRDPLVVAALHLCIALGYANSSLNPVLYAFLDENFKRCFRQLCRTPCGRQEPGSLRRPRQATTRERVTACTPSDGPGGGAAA

Question: For `CC(C)C[C@@H](NC(=O)[C@H](Cc1ccccc1)NC(=O)CNC(=O)[C@@H](C)NC(=O)[C@@H](N)Cc1ccc(O)cc1)C(=O)O` [DADLE, [D-Ala^2, D-Leu^5] enkephalin, reference compound], which “antinociception in tail-withdrawal test” value (mice [1]) is on record?
Answer: Its value is “did not themselves produce antinociception”.

Question: Which “Kd opioid receptor δ” value (δ opioid receptor (DOR)) does the source give for `CC(C)C[C@@H]1NC(=O)[C@H](C(C)C)NC(=O)CNC(=O)[C@H](CC(N)=O)NC(=O)[C@@H]2CCCN2C(=O)[C@H](Cc2ccc(O)cc2)NC(=O)[C@H](CCCNC(=N)N)NC(=O)[C@H](Cc2ccccc2)NC(=O)[C@@H](NC(=O)[C@H](CCCCN)NC(=O)[C@@H]2CCCN2C(=O)[C@H](CO)NC(=O)[C@H](C)NC(=O)[C@@H](N)Cc2ccc(O)cc2)CSSC[C@@H](C(=O)N[C@H](C(N)=O)[C@@H](C)O)NC(=O)[C@H](C)NC1=O` [OL, Y^1A^2S^3P^4K^5-cyclo[C^6F^7R^8Y^9P^10N^11G^12V^13L^14A^15C^16]T^17, reference compound] (H-YASPKCFRYPNGVLACT-NH2; disulfide 6-16; N-terminus and C-terminus assumed) here?
Answer: The value was “n.o”.

Question: And the “Kd opioid receptor μ” value (μ opioid receptor (MOR))?
Answer: The value was “n.o”.

Question: And the “Kd opioid receptor K” value (κ opioid receptor (KOR))?
Answer: The value was “n.o”.

Question: What about the “stability in 100% mouse brain homogenate” value [2] of the same molecule?
Answer: Its value is “proteolytic cleavage of the N-terminal Tyr^1 and Ala^2”.

Question: What about the adverse effects (mice [3]) of the same molecule?
Answer: The adverse effects was “no adverse effects were observed”.

Question: What about the “detection in mouse brain after i.n. administration” value ([4]; 30 minutes after i.n. (30 μg, 6 μL/nostril)) of the same molecule?
Answer: The value was “can be detected in the mouse brain”.

Question: What about the “time to elimination from the brain” value ([4]; after i.n. administration) of the same molecule?
Answer: The value was “about 240 minutes”.

Question: What does the source list for `CC(C)C[C@@H]1NC(=O)[C@H](CCCCN)NC(=O)[C@@H]2CCCN2C(=O)[C@H](Cc2c[nH]c3ccccc23)NC(=O)[C@H](Cc2ccccc2)NC(=O)CNC(=O)[C@H](CCCNC(=N)N)NC(=O)[C@H](Cc2ccccc2)NC(=O)[C@@H](NC(=O)[C@H](CCCCN)NC(=O)[C@@H]2CCCN2C(=O)[C@H](CO)NC(=O)[C@H](C)NC(=O)[C@@H](N)Cc2ccc(O)cc2)CSSC[C@@H](C(=O)N[C@H](C(N)=O)[C@@H](C)O)NC(=O)[C@H](C)NC1=O` [OLKOR-L1, Y^1A^2S^3P^4K^5-cyclo[C^6F^7R^8G^9F^10W^11P^12K^13L^14A^15C^16]T^17] (H-YASPKCFRGFWPKLACT-NH2; disulfide 6-16)?
Answer: motor coordination in rotarod test (mice [5]): no impairment in motor coordination in mice was observed; adverse effects (mice [3]): no other adverse effects were observed

Question: For `CC(C)C[C@@H]1NC(=O)[C@H](CCCCN)NC(=O)[C@@H]2CCCN2C(=O)[C@H](Cc2c[nH]c3ccccc23)NC(=O)[C@H](Cc2ccccc2)NC(=O)CNC(=O)[C@H](CCCNC(=N)N)NC(=O)[C@H](Cc2ccccc2)NC(=O)[C@@H](NC(=O)[C@H](CCCCN)NC(=O)[C@@H]2CCCN2C(=O)[C@H](CO)NC(=O)[C@H](C)NC(=O)[C@@H](N)Cc2c[nH]c3ccc(O)cc23)CSSC[C@@H](C(=O)N[C@H](C(N)=O)[C@@H](C)O)NC(=O)[C@H](C)NC1=O` [OLKOR-L1-5HTrp, 5-HTrp^1-A^2S^3P^4K^5-cyclo[C^6F^7R^8G^9F^10W^11P^12K^13L^14A^15C^16]T^17] (H-[Trp(5-OH)]ASPKCFRGFWPKLACT-NH2; disulfide 6-16), which “5-HTrp accumulation in the midbrain” value [6] is on record?
Answer: The value was “significant increase in 5-HTrp accumulation in the midbrain”.

Question: And the “conditioned place aversion (CPA)” value (mice [7])?
Answer: The value was “produced CPA”.

Question: What about the “conditioned place preference (reward)” value (mice [7]) of the same molecule?
Answer: Its value is “do not produce reward”.

Question: For `CC(C)C[C@@H]1NC(=O)[C@H](CC(N)=O)NC(=O)[C@H](C(C)C)NC(=O)[C@@H]2CCCN2C(=O)[C@H](Cc2ccccc2)NC(=O)[C@H](Cc2c[nH]cn2)NC(=O)[C@H](CCCNC(=N)N)NC(=O)[C@H](Cc2ccccc2)NC(=O)[C@@H](NC(=O)[C@H](CCCCN)NC(=O)[C@@H]2CCCN2C(=O)[C@H](CO)NC(=O)[C@H](C)NC(=O)[C@@H](N)Cc2ccc(O)cc2)CSSC[C@@H](C(=O)N[C@H](C(N)=O)[C@@H](C)O)NC(=O)[C@H](C)NC1=O` [OLMOR-L1, Y^1A^2S^3P^4K^5-cyclo[C^6F^7R^8H^9F^10P^11V^12N^13L^14A^15C^16]T^17] (H-YASPKCFRHFPVNLACT-NH2; disulfide 6-16), which “motor coordination in rotarod test” value (mice [5]) is on record?
Answer: Its value is “did not affect motor coordination and balance”.

Question: What about the “conditioned place aversion (CPA)” value (mice [7]) of the same molecule?
Answer: The value was “did not induce significant conditioned place preference or aversion”.

Question: What about the “conditioned place preference (reward)” value (mice [7]) of the same molecule?
Answer: The value was “did not induce significant conditioned place preference or aversion”.

Question: With “Y^1A^2S^3P^4K^5-cyclo[C^6F^7R^8Y^9Tic^10F^11F^12V^13L^14A^15C^16]T^17 (YASPKCFRY[Tic]FFVLACT; disulfide 6-16 (inferred)) [TIPP-OL]” as the molecule, how does the “antagonism of the effect of SNC-80” value (DOR) read?
Answer: Its value is “fully antagonizes the effect of a potent DOR agonist SNC-80”.

Question: For “Y^1P^2W^3F^4K^5-cyclo[C^6F^7R^8Y^9Tic^10F^11F^12V^13L^14A^15C^16]T^17 (YPWFKCFRY[Tic]FFVLACT; disulfide 6-16 (inferred)) [TIPP-EM1-OL]”, which “antinociception in tail-withdrawal test” value (mice [1]) is on record?
Answer: The value was “exhibits antinociceptive effects”.

— US11578100B2, “Cyclic peptides, cyclic peptide conjugates and methods of use thereof” (Florida Atlantic University Board of Trustees, priority 2018, dated 2023)
